{"source": "patent US9359451B2", "about": "“Methods and compositions for treating trauma-hemorrhage using estrogen and derivatives thereof” (THE UAB RESEARCH FOUNDATION, priority 2012, dated 2016)", "test_system": "injured brain", "assay": "Traumatic brain injury: FDG-PET/CT, diffusion tensor imaging and MRI edema", "type": "in vivo, rat", "method": "In a second experiment, the efficacy of E2-SO4 treatment for TBI in a lateral fluid percussion (LFP) model was examined. This involved 6 groups of rats (n=5/group). All rats received a craniectomy. Groups 1, 2, 4 and 5 received LFP injury. Groups 1 and 4 were treated with E2 (1 mg/kg) 1 hr post-injury, groups 2 and 5 were vehicle (Veh)-treated and groups 3 and 6 were sham. Groups 1-3 underwent intracranial pressure (ICP), cerebral perfusion pressure (CPP) and partial oxygen pressure (pbtO2) monitoring. Groups 4-6 underwent fludoexoyglucose (FDG)-PET/CT and diffusion tensor imaging (DTI) analysis on days 1 and 7 post-induction. Relative standard uptake values (SUV) of upper half of brain to central value, fractional anisotropy (FA) and apparent diffusion coefficient (ADC) maps were calculated.\nRats were either treated with E2 or a saline vehicle control, where treatment is administered 1 hour after injury. […] The former is the area of deranged nerves, while the latter constitutes intact nerves.", "data": [{"smiles": "C[C@]12CC[C@@H]3c4ccc(O)cc4CC[C@H]3[C@@H]1CC[C@@H]2O", "note": "[17β-estradiol]", "values": [{"measurement": "reduction in FA, sum of volumes from DTI slices, compared to vehicle controls", "setting": "FIG. 49, treatment 1 hour after injury, images 24 hr after treatment", "result": "approximately 50%"}, {"measurement": "FA (fractional anisotropy) change", "setting": "between Veh and treated groups", "result": "No significant FA change"}, {"measurement": "Edema size", "setting": "day 1, treated group", "result": "10.4±2.6", "unit": "mm^3"}, {"measurement": "Edema size", "setting": "day 7, treated group", "result": "1.2±0.7", "unit": "mm^3"}]}]}
